The values that follow come from US9382254B2, “Compounds and pharmaceutical compositions thereof for the treatment of cystic fibrosis” (Galapagos NV, priority 2013, dated 2016).

The term EC50 denotes the concentration giving half of the maximal effect. Higher therefore signals a need for much substance.

The target in this test is T1, CFTR ΔF508 mutant (Homo sapiens, UniProt P13569, DEL508-508).
T1 construct: expressed in transfected cells; host or cells: CFBE41o- (adenoviral transduction)
T1 sequence (P13569 with tags, fused parts or gaps DEL508-508): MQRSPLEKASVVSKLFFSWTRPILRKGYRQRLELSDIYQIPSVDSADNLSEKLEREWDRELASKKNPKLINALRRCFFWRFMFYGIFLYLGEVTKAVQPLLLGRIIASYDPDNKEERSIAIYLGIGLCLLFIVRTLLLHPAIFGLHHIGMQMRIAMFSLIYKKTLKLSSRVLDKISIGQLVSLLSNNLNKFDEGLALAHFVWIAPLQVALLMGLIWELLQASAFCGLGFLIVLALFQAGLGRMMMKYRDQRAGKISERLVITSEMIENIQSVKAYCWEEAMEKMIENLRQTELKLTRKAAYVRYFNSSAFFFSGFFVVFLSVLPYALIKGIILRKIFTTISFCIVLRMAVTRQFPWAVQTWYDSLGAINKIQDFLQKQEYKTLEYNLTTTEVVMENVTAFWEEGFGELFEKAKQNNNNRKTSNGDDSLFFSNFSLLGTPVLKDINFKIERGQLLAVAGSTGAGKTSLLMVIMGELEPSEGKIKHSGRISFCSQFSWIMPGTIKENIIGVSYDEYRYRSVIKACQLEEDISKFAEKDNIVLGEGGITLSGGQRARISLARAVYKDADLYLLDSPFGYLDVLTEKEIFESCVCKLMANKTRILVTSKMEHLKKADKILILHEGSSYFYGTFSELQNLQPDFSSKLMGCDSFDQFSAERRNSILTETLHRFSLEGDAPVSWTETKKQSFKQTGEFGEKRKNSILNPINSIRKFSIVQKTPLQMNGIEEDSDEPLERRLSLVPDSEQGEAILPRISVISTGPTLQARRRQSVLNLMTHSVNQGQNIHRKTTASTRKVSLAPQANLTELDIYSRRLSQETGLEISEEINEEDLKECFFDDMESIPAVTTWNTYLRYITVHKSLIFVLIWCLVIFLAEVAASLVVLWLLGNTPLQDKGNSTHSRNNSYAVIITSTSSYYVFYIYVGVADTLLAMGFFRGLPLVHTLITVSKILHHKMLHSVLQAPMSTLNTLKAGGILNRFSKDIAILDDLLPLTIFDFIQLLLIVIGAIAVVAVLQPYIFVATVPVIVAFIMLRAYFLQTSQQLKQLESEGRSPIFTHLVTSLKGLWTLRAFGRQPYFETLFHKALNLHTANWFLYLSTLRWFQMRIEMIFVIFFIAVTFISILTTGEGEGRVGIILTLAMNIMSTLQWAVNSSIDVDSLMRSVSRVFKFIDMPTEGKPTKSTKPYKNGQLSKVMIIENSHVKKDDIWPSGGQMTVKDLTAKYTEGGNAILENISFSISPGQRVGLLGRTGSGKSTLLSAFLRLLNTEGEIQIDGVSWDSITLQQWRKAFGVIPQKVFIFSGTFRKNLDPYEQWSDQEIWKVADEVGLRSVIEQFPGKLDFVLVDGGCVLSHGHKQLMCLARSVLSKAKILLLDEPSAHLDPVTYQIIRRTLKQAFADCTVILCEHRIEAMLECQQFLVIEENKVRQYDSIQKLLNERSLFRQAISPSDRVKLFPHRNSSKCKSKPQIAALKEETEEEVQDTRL
Description: YFP-halide influx assay for the CFTR-ΔF508 mutation, gluconate buffer. It is filed as cell-based. Particulars: CFBE41o- cells, forskolin 10.67 μM. The source says:
The YFP halide influx assay measures the functionality of the cystic fibrosis Transmembrane Conductance regulator (CFTR) channels in the cystic fibrosis bronchial epithelium cell line CFBE41o-. The assay is used to evaluate the capacity of compounds to increase the open probability of existing CFTR channels in the membrane. It makes use of the observation that the yellow fluorescent protein (YFP) variant YFP H148Q, I152L has its fluorescence substantially quenched by halide ions like Cl^− and I^−. (Galietta, Haggie, & Verkman, 2001) (Nagai, et al., 2002)
For this purpose, CFBE41o-cells are seeded in 96 well plates (6000 CFBE cells/well). One day after seeding, the CFBE cells are transduced with adenoviral vectors that direct the expression of the CFTR ΔF508 mutant and of the YFP reporter. Cells are incubated at 27° C., 5% CO2 for 24 hours so as to allow for the proper folding and migration to the membrane of the CFTR channel or treated with a CFTR modulator during 24 hours at 37° C.
The I^−-induced quenching of fluorescence is recorded immediately after injection of I^− for 7 seconds. The capacity of a compound to increase the channel opening is directly correlated with the decrease in fluorescence, and is expressed as (1-(fluorescence after 7 seconds (F)/fluorescence before injection (F0))) and an EC50 can be derived from a (1-F/F0) vs compound concentration plot.
The compound `NC(=O)c1cc(S(=O)(=O)N2CCC2)sc1NC(=O)c1cc[nH]n1` [Compound 208, N-(5-(azetidin-1-ylsulfonyl)-3-carbamoylthiophen-2-yl)-1H-pyrazole-3-carboxamide] yielded an EC50 of 573 nM.
On to `N#Cc1ccc(C(=O)Nc2sc(S(=O)(=O)N3CCCCC3)cc2C(N)=O)cc1` [Compound 22, 2-(4-cyanobenzamido)-5-(piperidin-1-ylsulfonyl)thiophene-3-carboxamide], for which the midpoint of the response, the EC50, lay at 317 nM.
As to `Cc1ccc(C(=O)Nc2sc(S(=O)(=O)N(C)c3ccccc3)cc2C(N)=O)s1` [Compound 7, N-(3-carbamoyl-5-(N-methyl-N-phenylsulfamoyl)thiophen-2-yl)-5-methylthiophen-2-carboxamide], a half-maximal response (EC50) required 1080 nM.
As for `Cc1ccccc1C(=O)Nc1sc(S(=O)(=O)N2CCOCC2)cc1C(N)=O` [Compound 136, 2-(2-methylbenzamido)-5-(morpholinosulfonyl) thiophene-3-carboxamide], the EC50 amounted to 291 nM.
Regarding `CN(CCC(F)(F)F)S(=O)(=O)c1cc(C(N)=O)c(NC(=O)c2ccccc2F)s1` [Compound 185, 2-(2-fluorobenzamido)-5-(N-methyl-N-(3,3,3-trifluoropropyl)sulfamoyl) thiophene-3-carboxamide], the EC50 came to 335 nM.
`NC(=O)c1cc(S(=O)(=O)C2CCCCC2)sc1NC(=O)c1ccccc1F` [Compound 129, 5-(cyclohexylsulfonyl)-2-(2-fluorobenzamido) thiophene-3-carboxamide] returned a half-maximal effective concentration (EC50) of 275 nM.
`NC(=O)c1cc(S(=O)(=O)N2CCOCC2)sc1NC(=O)c1ccnnc1` [Compound 80, N-(3-carbamoyl-5-(morpholinosulfonyl)thiophen-2-yl)pyridazine-4-carboxamide] showed an EC50 greater than 1000 nM.
`COc1cc(C)ccc1C(=O)Nc1sc(S(=O)(=O)N2CCOCC2)cc1C(N)=O` [Compound 135, 2-(2-methoxy-4-methylbenzamido)-5-(morpholinosulfonyl) thiophene-3-carboxamide]: the half-maximal effective concentration (EC50) was greater than 1000 nM.
Next, `Cc1c(S(=O)(=O)c2ccccc2)sc(NC(=O)c2ccccc2C(F)(F)F)c1C(N)=O` [Compound 104, 4-methyl-5-(phenylsulfonyl)-2-(2-(trifluoromethyl)benzamido)thiophene-3-carboxamide]: 370 nM.
`CS(=O)(=O)c1cc(C(N)=O)c(NC(=O)c2ccccc2F)s1` [Compound 127, 2-(2-fluorobenzamido)-5-(methylsulfonyl) thiophene-3-carboxamide]: the EC50 was determined as 659 nM.
As to `Cc1ccc(C(=O)Nc2sc(S(=O)(=O)N3CCCCC3)cc2C(N)=O)s1` [Compound 1, N-(3-carbamoyl-5-(piperidin-1-ylsulfonyl)thiophen-2-yl)-5-methylthiophene-2-carboxamidc], a half-maximal effect (EC50) was put at 135 nM.
Take `NC(=O)c1cc(S(=O)(=O)N2CCOCC2)sc1NC(=O)c1ccc(Cl)cc1F` [Compound 133, 2-(4-chloro-2-fluorobenzamido)-5-(morpholinosulfonyl) thiophene-3-carboxamide]: the EC50 was determined as 271 nM.
Next, `NC(=O)c1cc(S(=O)(=O)N2CC(F)C2)sc1NC(=O)c1ccccc1F` [Compound 177, 5-(3-fluoroazetidin-1-ylsulfonyl)-2-(2-fluorobenzamido)thiophene-3-carboxamide]: 178 nM.
`COc1ccc(CS(=O)(=O)c2cc(C(N)=O)c(NC(=O)c3ccccc3F)s2)cc1` [Compound 130, 2-(2-fluorobenzamido)-5-(4-methoxybenzylsulfonyl) thiophene-3-carboxamide] returned a concentration giving a half-maximal response (EC50) of 383 nM.
Next, `Cc1ccc(C(=O)Nc2sc(S(=O)(=O)c3ccccn3)cc2C(N)=O)s1` [Compound 89, N-(3-carbamoyl-5-(pyridin-2-ylsulfonyl)thiophen-2-yl)-5-methylthiophene-2-carboxamide]: 378 nM.
With `CC(C)(C)c1ccc(C(=O)Nc2sc(S(=O)(=O)N3CCC(F)(F)CC3)cc2C(N)=O)cc1` [Compound 65, 2-(4-tert-butylbenzamido)-5-(4,4-difluoropiperidin-1-ylsulfonyl)thiophene-3-carboxamide], the EC50 stood at 1570 nM.
In turn, `N#Cc1ccccc1C(=O)Nc1sc(S(=O)(=O)N2CCCCC2)cc1C(N)=O` [Compound 25, 2-(2-cyanobenzamido)-5-(piperidin-1-ylsulfonyl)thiophene-3-carboxamide] had an EC50 of 945 nM.
The compound `COCCCN(C)S(=O)(=O)c1cc(C(N)=O)c(NC(=O)c2ccccc2F)s1` [Compound 186, 2-(2-fluorobenzamido)-5-(N-(3-methoxypropyl)-N-methylsulfamoyl)thiophene-3-carboxamide] had an EC50 of 270 nM.
As for `Cc1cc(C(=O)Nc2sc(S(=O)(=O)N3CCOCC3)cc2C(N)=O)n[nH]1` [Compound 166, N-(3-carbamoyl-5-(morpholinosulfonyl)thiophen-2-yl)-5-methyl-1H-pyrazole-3-carboxamide], the figure is 815 nM; as for `NC(=O)c1cc(S(=O)(=O)N2CCOCC2)sc1NC(=O)c1ccc[nH]1` [Compound 97, N-(3-carbamoyl-5-(morpholinosulfonyl)thiophen-2-yl)-1H-pyrrole-2-carboxamide], greater than 1000 nM; as for `CN(Cc1ccccc1)S(=O)(=O)c1cc(C(N)=O)c(NC(=O)C(C)(C)C)s1` [Compound 88, 5-(N-benzyl-N-methylsulfamoyl)-2-pivalamidothiophene-3-carboxamide], 162 nM.
`CN(C(c1ccccc1)C(F)(F)F)S(=O)(=O)c1cc(C(N)=O)c(NC(=O)c2cc[nH]n2)s1` (centres unmarked) [Compound 195, N-(3-carbamoyl-5-(N-methyl-N-(2,2,2-trifluoro-phenylethyl)sulfamoyl)thiophen-2-yl)-1H-pyrazole-3-carboxamide] returned an EC50 of 258 nM.
`CN(Cc1ccccc1)S(=O)(=O)c1cc(C(N)=O)c(NC(=O)C2(c3ccc4c(c3)OC(F)(F)O4)CC2)s1` [Compound 71, 5-(N-benzyl-N-methylsulfamoyl)-2-(1-(2,2-difluorobenzo[d][1,3]dioxol-5-yl)cyclopropanecarboxamido) thiophene-3-carboxamide] came in with a 50% effective concentration (EC50) of 797 nM.
`CC(C)(O)C1CCN(S(=O)(=O)c2cc(C(N)=O)c(NC(=O)c3ccccc3F)s2)CC1` [Compound 149, 2-(2-fluorobenzamido)-5-(4-(2-hydroxypropan-2-yl)piperidin-1-ylsulfonyl) thiophene-3-carboxamide]: the 50% effective concentration (EC50) was determined as 517 nM.
As to `Cc1c(S(=O)(=O)N2CCOCC2)sc(NC(=O)c2cc[nH]n2)c1C(N)=O` [Compound 90, N-(3-carbamoyl-4-methyl-5-(morpholinosulfonyl)thiophen-2-yl)-1H-pyrazole-3-carboxamide], a half-maximal response (EC50) required 261 nM.
With `NC(=O)c1cc(S(=O)(=O)N2CCCCC2)sc1NC(=O)c1cccc(-n2cccn2)c1` [Compound 53, 2-(3-(1H-pyrazol-1-yl)benzamido)-5-(piperidin-1-ylsulfonyl)thiophene-3-carboxamide], the midpoint of the response, the EC50, lay at 1260 nM.
Next, `NC(=O)c1cc(S(=O)(=O)N2CCOCC2)sc1NC(=O)c1cscn1` [Compound 76, N-(3-carbamoyl-5-(morpholinosulfonyl)thiophen-2-yl)thiazole-4-carboxamide]: 621 nM; `NC(=O)c1cc(S(=O)(=O)N2CCCCC2)sc1NC(=O)C1CCCC1` [Compound 13, 2-(cyclopentanecarboxamido)-5-(piperidin-1-ylsulfonyl)thiophene-3-carboxamide]: 401 nM.
Take `CCc1cc(C(=O)Nc2sc(S(=O)(=O)N3CCOCC3)cc2C(N)=O)n[nH]1` [Compound 69, N-(3-carbamoyl-5-(morpholinosulfonyl)thiophen-2-yl)-5-ethyl-1H-pyrazole-3-carboxamide]: the EC50 worked out at 147 nM.
As for `NC(=O)c1cc(S(=O)(=O)N2CCCCC2)sc1NC(=O)C1(C(F)(F)F)CC1` [Compound 38, 5-(piperidin-1-ylsulfonyl)-2-(1-(trifluoromethyl)cyclopropanecarboxamido) thiophene-3-carboxamide], the figure is 900 nM.
The compound `COc1ccccc1S(=O)(=O)c1cc(C(N)=O)c(NC(=O)c2ccccc2F)s1` [Compound 181, 2-(2-fluorobenzamido)-5-(2-methoxyphenylsulfonyl) thiophene-3-carboxamide] returned an EC50 of 144 nM.
Consider `NC(=O)c1cc(S(=O)(=O)N2CCCC2)sc1NC(=O)c1cc[nH]n1` [Compound 56, N-(3-carbamoyl-5-(pyrrolidin-1-ylsulfonyl)thiophen-2-yl)-1H-pyrazole-3-carboxamide], for which a half-maximal response (EC50) required 206 nM.
In turn, `COc1cc(F)ccc1C(=O)Nc1sc(S(=O)(=O)N2CCOCC2)cc1C(N)=O` [Compound 168, 2-(4-fluoro-2-methoxybenzamido)-5-(morpholinosulfonyl) thiophene-3-carboxamide] returned a half-maximal effective concentration (EC50) of 1660 nM.
As for `NC(=O)c1cc(S(=O)(=O)N2CCCCC2)sc1NC(=O)c1c[nH]cn1` [Compound 35, N-(3-carbamoyl-5-(piperidin-1-ylsulfonyl)thiophen-2-yl)-1H-imidazole-4-carboxamide], a half-maximal effect (EC50) was put at 3280 nM.
For `NC(=O)c1cc(S(=O)(=O)N2CCOCC2)sc1NC(=O)c1cc2ccccc2s1` [Compound 50, N-(3-carbamoyl-5-(morpholinosulfonyl)thiophen-2-yl)benzo[b] thiophene-2-carboxamide], the EC50 came out at 391 nM.
